Measured values from US20220161456A1, “S[…] PRESERVATIVE COMPOSITION COMPRISING POLYMERIC BETAINE AND CARBAMATE” (Troy Corporation, priority 2019, published 2022).

What was measured:
[1] = tested on: Aspergillus niger (ATCC #6275); experiment: EUCAST 96-well plate fungal growth inhibition (MIC); format: cell-based; parameters: key to growth of Aspergillus niger in 96-well plates: (+) in each block indicates growth; (−) indicates no growth, i.e., the inhibitor was effective; details: for MIC: Aspergillus niger ATCC 6275, 3 days at 35° C.
Method: (§1) (A) 0.17 g of 60% DPAB aqueous solution (ProTek® PBT or Polymeric Betaine EP or Polymeric Betaine Technical Grade Active Ingredient Wood Preservative, Troy Chemical Corporation, Newark, N.J.) was diluted in 9.83 g ethanol by stirring to form a concentrate containing 1% DPAB.
(§2) (B) 0.25 g of 40% IPBC solvent solution (Polyphase® AF-1, Troy Chemical Corporation, Newark, N.J.) was diluted in 9.75 g ethanol by stirring to form a concentrate containing 1% IPBC.
(§3) (C) 21.04 g of 60% DPAB aqueous solution (ProTek® PBT or Polymeric Betaine EP or Polymeric Betaine Technical Grade Active Ingredient Wood Preservative, Troy Chemical Corporation, Newark, N.J.), 6.25 g of 40% IPBC solvent solution (Polyphase AF-1, Troy Chemical Corporation, Newark, N.J.) and 22.74 g of ethanol were mixed and stirred. The resulting concentrate contained 25% polymeric betaine and 5% IPBC. The weight ratio of polymeric betaine to IPBC was 5:1. 0.33 g of this IPBC/polymeric betaine concentrate was diluted in 9.67 g of ethanol to form a use-dilution containing about 0.83% DPAB and 0.17% IPBC.
(§4) Solutions prepared as described above were tested in 96-well plates for their ability to inhibit fungal growth. The solutions were tested according to the EUCAST methodology as described in Rodriguez-Tudela et al. 2006 “Antifungal susceptibility testing in Aspergillus spp. according to EUCAST methodology,” the contents of which are incorporated by reference herein. The solutions were checked for inhibition against fungal organisms Aspergillus niger (ATCC #6275), Aureobasidium pullulans (ATCC #9348), Penicillium funiculosum (ATCC #11797) and Trichoderma pseudokoningii (ATCC #26801). This method is described below:
(§5) (1) Prepared preservative test wells by adding 2 microliters of each 1% preservative solution formulation to 198 microliters of 2xRPMI-MOPS-2% Glucose in each column “1” in duplicate.
(§6) (2) Added 100 microliters of 2xRPMI-MOPS-2% Glucose to the remaining columns.
(§7) (3) Performed 2-fold dilutions down the columns to column “12”.
(§8) (4) Prepared suspension of microorganisms from a 3-5 day old PDA slants by flooding slant with 1 mL deionized water and 0.1% Tween-20.
(§9) (5) Suspension strength was determined via hemocytometer then adjusted to 1×10^6 spores/mL with sterile deionized water.
(§10) (6) Added 100 microliters of the microorganism suspension to all wells except for sterility (−) controls containing test media. The water used to prepare the fungal suspensions was added to sterility (−) control wells.
(§11) (7) The inoculated 96-well plates were incubated for 3 days at 35° C.
(§12) (8) After incubation, fungal growth was evaluated by visual growth in test wells. Minimum inhibitory concentration (MIC) is recorded in ppm and defined as the lowest concentration of fungicide that produces no visual changes in turbidity in the test wells. (+) in each block indicates growth and (−) indicates no growth, i.e., the inhibitor was effective.
(§13) (9) The experiment is only considered valid if growth is observed in the positive (+) control wells and no growth is observed in the negative control wells.
(§14) In order to show more directly the possible synergy in the invention, the results are presented by applying the Synergy Index (S.I.). Minimal inhibitory concentration of the composition of this invention (mixture of DPAB and IPBC) are analyzed using the following equation:
(§15) MCA=Concentration of compound A in parts per million, acting alone, which prevents fungal growth at the reference point
(§16) MCA′=Concentration of compound A in parts per million, in the mixture, which prevents fungal growth at the reference point
(§17) MCB=Concentration of compound B in parts per million, acting alone, which prevents fungal growth at the reference point
(§18) MCB′=Concentration of compound B in parts per million, in the mixture, which prevents fungal growth at the reference point
(§19) When SI is greater than 2, antagonism is indicated. […] When SI is between 0.5 and 2, the action of biocides is additive.

[2] = tested on: Aureobasidium pullulans (ATCC #9348); experiment: as above; format: cell-based; parameters: key to growth of Aureobasidium pullulans in 96-well plates: (+) in each block indicates growth; (−) indicates no growth, i.e., the inhibitor was effective; details: for MIC: Aureobasidium pullulans ATCC 9348, 3 days at 35° C.
Method: as §1, §2, §3, §4, §5, §6, §7, §8, §9, §10, §11, §12, §13, §14, §15, §16, §17, §18, §19

Compound	MIC [1] [ppm]	growth of Aspergillus niger in 96-well plates ([1]; well 1, 50.0 ppm active)	growth of Aspergillus niger in 96-well plates ([1]; well 2, 25.0 ppm active)	growth of Aspergillus niger in 96-well plates ([1]; well 3, 12.5 ppm active)	growth of Aspergillus niger in 96-well plates ([1]; well 4, 6.25 ppm active)	growth of Aspergillus niger in 96-well plates ([1]; well 5, 3.13 ppm active)	growth of Aspergillus niger in 96-well plates ([1]; well 6, 1.56 ppm active)	growth of Aspergillus niger in 96-well plates ([1]; well 7, 0.78 ppm active)	growth of Aspergillus niger in 96-well plates ([1]; well 8, 0.39 ppm active)	growth of Aspergillus niger in 96-well plates ([1]; well 9, 0.20 ppm active)	growth of Aspergillus niger in 96-well plates ([1]; well 10, 0.10 ppm active)	growth of Aspergillus niger in 96-well plates ([1]; well 11, 0.05 ppm active)	growth of Aspergillus niger in 96-well plates ([1]; well 12, 0.02 ppm active)	MIC [2] [ppm]	growth of Aureobasidium pullulans in 96-well plates ([2]; well 1, 50.00 ppm active)	growth of Aureobasidium pullulans in 96-well plates ([2]; well 2, 25.00 ppm active)	growth of Aureobasidium pullulans in 96-well plates ([2]; well 3, 12.50 ppm active)	growth of Aureobasidium pullulans in 96-well plates ([2]; well 4, 6.25 ppm active)	growth of Aureobasidium pullulans in 96-well plates ([2]; well 5, 3.13 ppm active)	growth of Aureobasidium pullulans in 96-well plates ([2]; well 6, 1.56 ppm active)	further results
didecyl bis(hydroxyethyl) ammonium borate [DPAB]	12.50	−	−	−	+	+	+	+	+	+	+	+	+	12.5	−	−	−	+	+	+	growth of Aureobasidium pullulans in 96-well plates ([2]; well 7, 0.78 ppm active): +; growth of Aureobasidium pullulans in 96-well plates ([2]; well 8, 0.39 ppm active): +; growth of Aureobasidium pullulans in 96-well plates ([2]; well 9, 0.20 ppm active): +; growth of Aureobasidium pullulans in 96-well plates ([2]; well 10, 0.10 ppm active): +; growth of Aureobasidium pullulans in 96-well plates ([2]; well 11, 0.05 ppm active): +; growth of Aureobasidium pullulans in 96-well plates ([2]; well 12, 0.02 ppm active): +
CCCCNC(=O)OCC#CI [IPBC, 3-iodo-2-propynyl butyl carbamate]	0.78	−	−	−	−	−	−	−	+	+	+	+	+	25.00	−	−	+	+	+	+	growth of Aureobasidium pullulans in 96-well plates ([2]; well 7, 0.78 ppm active): +; growth of Aureobasidium pullulans in 96-well plates ([2]; well 8, 0.39 ppm active): +; growth of Aureobasidium pullulans in 96-well plates ([2]; well 9, 0.20 ppm active): +; growth of Aureobasidium pullulans in 96-well plates ([2]; well 10, 0.10 ppm active): +; growth of Aureobasidium pullulans in 96-well plates ([2]; well 11, 0.05 ppm active): +; growth of Aureobasidium pullulans in 96-well plates ([2]; well 12, 0.02 ppm active): +
